Assay results published in patent publication US11013786B2, “Therapy” (SELECTIMMUNE PHARMA AB, priority 2015, dated 2021).
“Also recorded” adds a separate entry of the source. Peptide text beside a SMILES is read from it. * marks the point of attachment. Cbz = O=C(OCc1ccccc1)*; CH2F = FC*

Tests used:
IL-1β processing = IL-1β processing in infected human bladder epithelial cells with caspase inhibition (Western blot); assay type: cell-based; settings: human bladder epithelial cells infected with acute cystitis strains, 4 h, pre-incubated with inhibitor 100 μM, 30 min
Protocol: Cells were cultured as described above, but in particular in 6-well plates (7×10^5 cells/well, Thermo Fisher Scientific), lysed with RIPA lysis buffer, supplemented with protease and phosphatase inhibitors (Roche Diagnostics). They may then be fractionated using NE-PER Nuclear and Cytoplasmic extraction reagents (Thermo Scientific). For Caspase inhibition, cells were pre-incubated with Z-VAD(OMe)-FMK (#BML-P416-0001, Enzo Life Science, 100 μM, 30 min). Supernatants were filtered and concentrated by trichloroacetic acid precipitation, followed by acetone desiccation. […] Bands were quantified by ImageJ. […]
Cell lysates and supernatants from infected cells were subjected to Western blot analysis, with antibodies specific for IL-1β. Two fragments of approximately 29 kDa and 16-18 kDa were detected, corresponding to the N-terminal pro-piece and mature IL-1β.

[1] = system: Asc^−/− mice infected with E. coli CFT073; experiment: Acute cystitis immunotherapy in the experimental urinary tract infection model (Asc−/− mice infected with E. coli CFT073); assay type: in vivo; settings: for macroscopic bladder pathology, edema and hyperemia: vs untreated
IL-1β = IL-1β in urine of treated infected Asc−/− mice (Western blot analysis of urine samples); assay type: in vivo; settings: CFT073, IL-1RA (Anakinra) 1 mg i.p. daily
Protocol: IL-1β, IL-6 and IL-8 concentrations in filtered supernatants (Syringe Filter w/0.2 um PES, VWR) were determined by Immulite 1000 (Siemens) and Il-1β concentrations in cell supernatants or urine by Human or Mouse Il-1b/IL-1F2 DuoSet ELISA kits (R&D Systems). Urine MMP-7 levels were quantified with Human total MMP-7 Immunoassay Quantikine® ELISA (R&D Systems).
Cells were cultured as described above, but in particular in 6-well plates (7×10^5 cells/well, Thermo Fisher Scientific), lysed with RIPA lysis buffer, supplemented with protease and phosphatase inhibitors (Roche Diagnostics). They may then be fractionated using NE-PER Nuclear and Cytoplasmic extraction reagents (Thermo Scientific). For Caspase inhibition, cells were pre-incubated with Z-VAD(OMe)-FMK (#BML-P416-0001, Enzo Life Science, 100 μM, 30 min). Supernatants were filtered and concentrated by trichloroacetic acid precipitation, followed by acetone desiccation. […] Bands were quantified by ImageJ.
To address the contribution of MMP-7 to pathology, Asc^−/− mice were also treated with an MMP inhibitor (Batimastat), (0.5 mg in 100 μl of PBS i.p. 30 minutes before, first three and last three days of infection, FIG. 6A). […] By immunohistochemistry, some retention of unprocessed IL-1β in bladder tissue was detected, consistent with the need for MMP-7 and IL-1R to secrete mature IL-1β.

[2] = CFT073, Anakinra 1 mg i.p. daily, 7 days

| Compound | inhibition of IL-1β processing (IL-1β processing) | mucosal integrity [1, 2] | mucosal neutrophil infiltrate [1, 2] | urine neutrophil numbers ([1]; CFT073, Anakinra 1 mg i.p. daily, 7 days after infection) | pathology in bladder tissue sections ([1]; CFT073, Anakinra 1 mg i.p. daily, 7 days, H&E) | macroscopic bladder pathology, edema and hyperemia [1, 2] | macroscopic bladder pathology, edema and hyperemia ([1]; CFT073, Anakinra 1 mg i.p. daily, 7 days, listed as IL-1RA) | bacterial counts ([1]; CFT073, Anakinra 1 mg i.p. daily, urine, 7 days after infection) | therapeutic effect / protection from acute cystitis ([1]; E. coli CFT073, Anakinra 1 mg in 100 μl PBS i.p. 30 min before and daily after infection, 7 days, vs untreated Asc−/− mice) | mature IL-1β in urine (IL-1β) |
| --- | --- | --- | --- | --- | --- | --- | --- | --- | --- | --- |
| COC(=O)C[C@H](NC(=O)[C@H](C)NC(=O)[C@@H](NC(=O)OCc1ccccc1)C(C)C)C(=O)CF [Z-VAD, Z-VAD(OMe)-FMK] (Cbz-Val-Ala-Asp(OMe)-CH2F) | about 20% |  |  |  |  |  |  |  |  |  |
| Anakinra: IL-1 receptor antagonist, Anakinra (Kineret, SOBI) |  | maintained | prevented | low | marked reduction | protected | prevented | remained elevated | dramatic therapeutic effect; also recorded: protects; also recorded: prevented | loss |
